Results reported in ChEMBL document CHEMBL1201862, “PubChem BioAssay data set” (2004).
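Assay format: 96-well plates, 48-hour exposure. GI50 marks 50% less growth.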 Calls of active or inactive are those of the source. Cut-off read from the data, not from the text of the source: active = GI50 up to about 1.1 µM and inactive = higher.

What was measured:
Experiment in all cases: inhibition of tumour cell growth, NCI panel, 48 h
786-0 = tested on: 786-0
A498 = tested on: A498
ACHN = tested on: ACHN
IGROV-1 = tested on: IGROV-1
K562 = tested on: K562
KM12 = tested on: KM12
LOX IMVI = tested on: LOX IMVI
NCI-H226 = tested on: NCI-H226
NCI-H23 = tested on: NCI-H23
NCI-H460 = tested on: NCI-H460
OVCAR-4 = tested on: OVCAR-4
OVCAR-8 = tested on: OVCAR-8
SF-295 = tested on: SF-295
SK-OV-3 = tested on: SK-OV-3
SNB-75 = tested on: SNB-75
SR = tested on: SR
TK-10 = tested on: TK-10
U-251 = tested on: U-251
UACC-62 = tested on: UACC-62
Malme-3M = tested on: Malme-3M

Measured: GI50

OC1(C(O)(c2ccc(-c3ccccc3)cc2)c2ccc(-c3ccccc3)cc2)CCCCC1
inactive: 786-0 > 100 µM | A498 > 100 µM | ACHN > 100 µM | IGROV-1 > 100 µM | K562 > 100 µM | KM12 > 100 µM | LOX IMVI > 100 µM | NCI-H226 > 100 µM | NCI-H23 > 100 µM | NCI-H460 44 µM | OVCAR-4 > 100 µM | OVCAR-8 > 100 µM | SF-295 > 100 µM | SK-OV-3 > 100 µM | SNB-75 > 100 µM | SR 28.6 µM | TK-10 > 100 µM | U-251 > 100 µM | UACC-62 > 100 µM

CC(C)=CC(=O)N1CCN(C(=O)C=C(C)C)CC1
inactive: 786-0 > 100 µM | A498 > 100 µM | ACHN > 100 µM | IGROV-1 > 100 µM | K562 > 100 µM | KM12 > 100 µM | LOX IMVI > 100 µM | NCI-H23 > 100 µM | NCI-H460 > 100 µM | OVCAR-4 > 100 µM | OVCAR-8 > 100 µM | SF-295 > 100 µM | SK-OV-3 > 100 µM | SNB-75 > 100 µM | SR > 100 µM | TK-10 > 100 µM | U-251 > 100 µM | UACC-62 > 100 µM

COC(=O)CNS(=O)(=O)c1ccc(-c2c3nc(c(-c4ccc(S(=O)(=O)NCC(=O)OC)cc4)c4ccc([nH]4)c(-c4ccc(S(=O)(=O)NCC(=O)OC)cc4)c4nc(c(-c5ccc(S(=O)(=O)NCC(=O)OC)cc5)c5ccc2[nH]5)C=C4)C=C3)cc1
inactive: 786-0 > 100 µM | A498 64.9 µM | ACHN > 100 µM | IGROV-1 > 100 µM | K562 > 100 µM | KM12 50.7 µM | LOX IMVI > 100 µM | Malme-3M > 100 µM | NCI-H23 > 100 µM | NCI-H460 > 100 µM | OVCAR-4 > 100 µM | OVCAR-8 > 100 µM | SF-295 > 100 µM | SK-OV-3 > 100 µM | SNB-75 > 100 µM | SR > 100 µM | TK-10 > 100 µM | U-251 82.6 µM | UACC-62 62.2 µM

N#Cc1nc(COCCOCc2ccc(F)cc2)oc1N
inactive: 786-0 > 100 µM | A498 > 100 µM | ACHN > 100 µM | IGROV-1 > 100 µM | K562 > 100 µM | KM12 > 100 µM | LOX IMVI > 100 µM | NCI-H226 > 100 µM | NCI-H23 > 100 µM | NCI-H460 > 100 µM | OVCAR-4 > 100 µM | OVCAR-8 > 100 µM | SF-295 > 100 µM | SK-OV-3 > 100 µM | SNB-75 > 100 µM | SR > 100 µM | TK-10 > 100 µM | U-251 > 100 µM | UACC-62 > 100 µM

C/C(Cl)=N\OC(=O)Nc1ccc(C)cc1
inactive: 786-0 18.7 µM | A498 18.8 µM | ACHN 15.7 µM | IGROV-1 16.7 µM | K562 9.91 µM | KM12 17.2 µM | LOX IMVI 17.5 µM | Malme-3M 16.9 µM | NCI-H23 20.7 µM | NCI-H460 18.1 µM | OVCAR-4 18.5 µM | OVCAR-8 17.9 µM | SF-295 16.6 µM | SK-OV-3 17.3 µM | SNB-75 12.8 µM | SR 9.64 µM | TK-10 15.2 µM | U-251 16.3 µM

C/C=C(/C)C(=O)OC1CC(C)[C@H]2CC(=O)C(C)=C2CC1C(C)(C)OC(C)=O (stereo not given in full)
inactive: 786-0 43.8 µM | A498 20.2 µM | ACHN 35.6 µM | IGROV-1 53.8 µM | K562 32.6 µM | KM12 25.9 µM | LOX IMVI 17.9 µM | Malme-3M 19.3 µM | NCI-H226 37.4 µM | NCI-H23 74.8 µM | NCI-H460 19.3 µM | OVCAR-4 22.2 µM | OVCAR-8 30.8 µM | SF-295 24.7 µM | SNB-75 44.4 µM | SR 23 µM | TK-10 28.8 µM | U-251 38.1 µM | UACC-62 21.8 µM

COC(=O)C(=O)Nc1cc2c3c(c1)Oc1cccc4c1C3(C)c1c(cccc1O2)O4
inactive: 786-0 30.9 µM | A498 39.7 µM | ACHN > 82 µM | IGROV-1 55.8 µM | KM12 > 100 µM | LOX IMVI 71.3 µM | Malme-3M > 65.9 µM | NCI-H226 4.75 µM | NCI-H23 > 100 µM | NCI-H460 > 100 µM | OVCAR-4 > 100 µM | SF-295 > 100 µM | SK-OV-3 > 100 µM | SNB-75 > 100 µM | SR 2.93 µM | TK-10 99.5 µM | U-251 > 100 µM | UACC-62 > 100 µM
